In the test the test system is monocyte/macrophage infiltration into peritoneal cavity. Nature of the test: 48-hour thioglycollate (TG)-induced peritonitis model in hCCR2 KI mouse. It is filed as in vivo, hCCR2 KI mice. Particulars: for % inhibition of monocyte/macrophage infiltration: FACS-based analysis of total monocyte/macrophages, 48 h; for EC50: Mus musculus, two separate studies, estimated, read-out: average EC50 for inhibition of monocyte/macrophage infiltration; for inhibition of monocyte/macrophage infiltration: flow cytometry (F4/80, Ly6C). As for the experimental part:
The hCCR2 KI mice (C57BL/6-SVJ129) were injected intraperitoneally with 1 ml of thioglycollate (TG) (Hardy Diagnostics). For each study, eight male mice per group were used. […] The vehicle used was 0.01 N HCl in water. Forty-eight hours post TG injection, peritoneal lavages were performed by injecting 5 ml PBS/10 mM EDTA/10% BSA into the peritoneal cavity.
Cytospins were performed to determine differential leukocyte counts. The cells were stained for 3 minutes with Wright-Giemsa Stain (Sigma-Aldrich) and then rinsed with deionized water for 5 minutes. Differential counts were calculated based on a total of 200 cells counted per sample.

Read-outs that look alike come from different tables or passages of the source.

On to `CC(=O)N[C@@H]1C[C@H](N(C)C(C)C)CC[C@@H]1N1CC[C@H](Nc2ncnc3ccc(C(F)(F)F)cc23)C1=O` [Example 1, N-((1R,2S,5R)-5-(isopropyl(methyl)amino)-2-((S)-2-oxo-3-(6-(trifluoromethyl)quinazolin-4-ylamino)pyrrolidin-1-yl)cyclohexyl)acetamide], for which the “% inhibition of monocyte/macrophage infiltration” value is recorded as 38% (1 mg/kg), 71% (5 mg/kg) and 86% (25 mg/kg). Also, the “number of total peritoneal leukocytes obtained by cell counter” value (1, 5, or 25 mg/kg BID oral, 48 hours post TG) was “dose-dependent reduction”. Further, the EC50 (differential leukocyte counts) was 3 ± 0.9 nM and the EC50 (flow cytometry) is 2.2 ± 0.5 nM. Moreover, the “inhibition of monocyte/macrophage influx” value (differential leukocyte counts, 1 mg/kg BID) came to 20%; the “inhibition of monocyte/macrophage influx” value (differential leukocyte counts, 5 mg/kg BID) came to 62%; the “inhibition of monocyte/macrophage influx” value (differential leukocyte counts, 25 mg/kg BID) was determined as 69%. For the same compound, the “inhibition of monocyte/macrophage infiltration” value runs as follows: (1 mg/kg BID) 38%; (5 mg/kg BID) 71%; (25 mg/kg BID) 86%.

(Values after patent publication US7671062B2, “Modulators of chemokine receptor activity, crystalline forms and process” (Bristol-Myers Squibb Company, priority 2006, dated 2010).)
